Earlier results in patent publication US7857962B2, “Potentiometric electrode, gradient polymer, uses and method of preparation therefor” (Universiteit Antwerpen, priority 2004, dated 2010).

Settings: basic drugs named for comparison

| Compound | log P |
| --- | --- |
| CC(C)(C)NCC(O)c1cc(Cl)c(N)c(Cl)c1 (centres unmarked) [clenbuterol, reference compound] | 2.91 |
| Nc1c(Br)cc(Br)cc1CN[C@H]1CC[C@H](O)CC1 [ambroxol, reference compound] | 3.24 |
| CN(Cc1cc(Br)cc(Br)c1N)C1CCCCC1 [bromhexine, reference compound] | 4.03 |

Same assay, conditions: organic acid analytes; n-octanol/water

| Compound | Log P |
| --- | --- |
| O=C(O)/C=C/C(=O)O [Fumaric, fumaric acid] | +0.49 |
| CC(O)C(=O)O (centres unmarked) [Lactic, lactic acid] | −1.31 |
| O=C(O)CCC(=O)O [Succinic, succinic acid] | −1.11 |
| O=C(O)C(O)C(O)C(=O)O (centres unmarked) [Tartaric, tartaric acid] | −1.39 |
| O=C(O)CC(O)C(=O)O (centres unmarked) [Malic, malic acid] | −1.22 |
